Data from patent US10160748B2 (AbbVie Inc., priority 2015, dated 2018).

What follows are compounds tested against TNFα trimer (Homo sapiens, UniProt P01375) (assay: TNFα FP Competitive Binding Assay). Conditions: FP binding assay; 20 nM TNFα trimer, 1 nM OregonGreen488 probe; read-out: TNF IC50.
Sequence of TNFα trimer (P01375 77-233 limits assumed): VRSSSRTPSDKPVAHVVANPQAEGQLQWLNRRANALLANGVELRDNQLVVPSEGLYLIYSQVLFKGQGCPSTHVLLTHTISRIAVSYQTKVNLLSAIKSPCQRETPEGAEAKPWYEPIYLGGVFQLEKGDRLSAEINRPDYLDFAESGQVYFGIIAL
Experimental: TNFα FP Competitive Binding Assay
• 1. Assay Buffer: Prepare 1× Assay Buffer (Water with 47 mM HEPES, 47 mM NaCl, 0.9 mM EDTA, 0.0071% Triton X-100) by adding 25 mL of 1 M HEPES, 5 mL of 5 M NaCl, 1 mL of 0.5 M EDTA, and 375 μL of a 10% Triton X-100 stock to a fresh 500 mL bottle of water. • 2. Assay Mixture: Prepare fresh Assay Mixture containing 20 nM TNFα trimer (60 nM protein) and 1 nM 2′,7′-difluoro-3′,6′-dihydroxy-N-(2-(2-(2-((4-(isoquinolin-8-yl)-3-(4-(isoquinolin-8-yl)phenethoxy)benzyl)oxy)ethoxy)ethoxy)ethyl)-3-oxo-3H-spiro[isobenzofuran-1,9′-xanthene]-5-carboxamide probe in 1× Assay Buffer. Compound Plate Preparation Manual 12-Point 1:3 Dilution Plates: (384 Well Polypropylene Plates)
Top concentration of compounds, 10 mM in DMSO, dispensed in rows A-O in columns 1 and 13. Compounds are serially diluted 1:3 with DMSO in columns 2-12 or 14-24 using a 16-channel Matrix pipettor. Plates stored at −20° C.
Discovery Preps 12-Point 1:3 Dilution Plates: (384 Well Assay Plates)
Top concentration, 5 mM in DMSO, of compounds placed in rows A-O in columns 1 and 13. Compounds are serially diluted 1:3 with DMSO in columns 2-12 or 14-24. Compound solutions are dispensed into replicate assay plates at 410 nL per well. Plates stored at 4° C.
TNFα FP Competitive Binding Assay Protocol
• 1. Compound plates warmed to rt. • 2. Fresh Assay Mixture is prepared. • 3. Assay Mixture (20 μL) is dispensed each well of 384 assay plates using a Thermo Multidrop Combi or 16-channel Matrix pipettor. If Manual 12-point 1:3 Dilution Plates are to be tested, Assay Mix is dispensed into empty plates. Discovery Preps 12-point 1:3 Dilution Plates already contain 410 nL compound solution in DMSO. • 4. For Manual 12-point 1:3 Dilution Plates, 0.7 μL is manually transferred using a 16-channel Matrix pipettor to replicate assay plates containing 20 μL Assay Mixture for a final top compound concentration of 338 μM (3.4% DMSO). • 5. For Discovery Preps 12-point 1:3 Dilution Plates, 20 μL Assay Mixture added the 410 nL compound solution already in the plates yields a final top compound concentration of 100 μM (2.0% DMSO). • 6. Background subtraction controls are wells P1-P8 containing only Assay Buffer. The low % inhibition controls are wells P9-P16 containing only Assay Mix. The high % inhibition are wells P17-P24 containing only 1 nM 2′,7′-difluoro-3′,6′-dihydroxy-N-(2-(2-(2-((4-(isoquinolin-8-yl)-3-(4-(isoquinolin-8-yl)phenethoxy)benzyl)oxy)ethoxy)ethoxy)ethyl)-3-oxo-3H-spiro[isobenzofuran-1,9′-xanthene]-5-carboxamide probe in 1× Assay Buffer. • 7. Plates are incubated at rt for 18-24 h in 37° C. incubator (CO2 is off). • 8. Prior to reading the assay, the plates are placed in a dark cabinet to equilibrate at rt for one hour. • 9. Background-subtracted fluorescence polarization (mP) is measured using a PerkinElmer Envision plate reader. • 10. Raw data is entered into Assay Explorer and dose-response curves are generated using a variable slope curve. Supplies, Materials, and Reagents
An IC50 of 1000 to 10000 nM was found for `Cc1ccc(OC(F)F)c(Cn2c3cc(-c4cnc(N5C[C@@H]6CNC(=O)[C@@H]6C5)nc4)ccc3c(=O)n2C)c1` (racemic) [Example 20.3] in this work. An IC50 of 1000 to 10000 nM was found for `Cn1c(=O)c2ccc(-c3cnc(C(C)(C)O)nc3)cc2n1Cc1cc([C@H]2CC[C@@H](C#N)C2)ccc1OC(F)F` (racemic) [Example 96, rac-(R,3S)-3-(4-(Difluoromethoxy)-3-((6-(2-(2-hydroxypropan-2-yl)pyrimidin-5-yl)-2-methyl-3-oxo-2,3-dihydro-1H-indazol-1-yl)methyl)phenyl)cyclopentane-1-carbonitrile] in this work. An IC50 of under 1000 nM was found for `Cn1c(=O)c2ccc(-c3cnc(C(C)(C)O)nc3)cc2n1Cc1cc([C@H]2CC[C@@H](C#N)C2)ccc1OC(F)F` (racemic) [Example 97] in this work. An IC50 of under 1000 nM was found for `Cc1ccc(OC(F)F)c(Cn2c3cc(-c4cnn5c(C(C)O)cnc5c4)ccc3c(=O)n2C)c1` (racemic) [Example 106, 1-(2-(Difluoromethoxy)-5-methylbenzyl)-6-(3-(1-hydroxyethyl)imidazo[1,2-b]pyridazin-7-yl)-2-methyl-1H-indazol-3(2H)-one] in this work. An IC50 of 1000 to 10000 nM was found for `Cn1c(=O)c2ccc(-c3cnc(C(C)(C)O)nc3)cc2n1Cc1cc([C@@H]2CCC[C@@H]2C#N)ccc1OC(F)F` (relative stereo) [Example 112, 2-(4-(Difluoromethoxy)-3-((6-(2-(2-hydroxypropan-2-yl)pyrimidin-5-yl)-2-methyl-3-oxo-2,3-dihydro-1H-indazol-1-yl)methyl)phenyl)cyclopentanecarbonitrile] in this work. An IC50 of under 1000 nM was found for `Cn1c(=O)c2ccc(-c3cnc(N4CCN5C(=O)NC[C@@H]5C4)nc3)cc2n1Cc1ccccc1OC(F)F` (single isomer, unassigned) [Example 6] in this work. An IC50 of under 1000 nM was found for `Cn1c(=O)c2ccc(-c3cnc(N4CCN5C(=O)NC[C@H]5C4)nc3)cc2n1Cc1ccccc1OC(F)F` (single isomer, unassigned) [Example 7] in this work. An IC50 of under 1000 nM was found for `Cc1ccc(OC(F)F)c(Cn2c3cc(-c4cnc(N5CCN6C(=O)NCC6C5)nc4)ccc3c(=O)n2C)c1` (single isomer, unassigned) [Example 8] in this work. An IC50 of under 1000 nM was found for `Cn1c(=O)c2ccc(-c3cnc(N[C@H]4CCNC(=O)C4)nc3)cc2n1Cc1cc(CO)ccc1OC(F)F` (single isomer, unassigned) [Example 25] in this work. An IC50 of under 1000 nM was found for `Cn1c(=O)c2ccc(-c3cnc(N[C@@H]4CCNC(=O)C4)nc3)cc2n1Cc1cc(CO)ccc1OC(F)F` (single isomer, unassigned) [Example 26] in this work. An IC50 of 1000 to 10000 nM was found for `CN1CC[C@H](Nc2ncc(-c3ccc4c(=O)n(C)n(Cc5cc(CO)ccc5OC(F)F)c4c3)cn2)CC1=O` (single isomer, unassigned) [Example 27] in this work. An IC50 of under 1000 nM was found for `CN1CC[C@@H](Nc2ncc(-c3ccc4c(=O)n(C)n(Cc5cc(CO)ccc5OC(F)F)c4c3)cn2)CC1=O` (single isomer, unassigned) [Example 28] in this work. An IC50 of under 1000 nM was found for `CC(=O)N1CCN(c2ncc(-c3ccc4c(=O)n(C)n(Cc5cc(C)ccc5OC(F)F)c4c3)cn2)C[C@H]1C` (single isomer, unassigned) [Example 54] in this work. An IC50 of under 1000 nM was found for `CC(=O)N1CCN(c2ncc(-c3ccc4c(=O)n(C)n(Cc5cc(C)ccc5OC(F)F)c4c3)cn2)C[C@@H]1C` (single isomer, unassigned) [Example 55] in this work. An IC50 of under 1000 nM was found for `C[C@@H]1CN(c2ncc(-c3ccc4c(=O)n(C)n([C@@H](C)c5c(F)cccc5F)c4c3)cn2)CCN1C(=O)CO` (single isomer, unassigned) [Example 58] in this work. An IC50 of under 1000 nM was found for `C[C@@H]1CN(c2ncc(-c3ccc4c(=O)n(C)n([C@@H](C)c5ccccc5F)c4c3)cn2)CCN1C(=O)CO` (single isomer, unassigned) [Example 85] in this work. An IC50 of 1000 to 10000 nM was found for `C[C@@H]1CN(c2ncc(-c3ccc4c(=O)n(C)n([C@H](C)c5ccccc5F)c4c3)cn2)CCN1C(=O)CO` (single isomer, unassigned) [Example 86] in this work. An IC50 of under 1000 nM was found for `Cc1ccc(OC(F)F)c(Cn2c3cc(-c4cnn5c([C@@H](C)O)cnc5c4)ccc3c(=O)n2C)c1` (single isomer, unassigned) [Example 107] in this work. An IC50 of 1000 to 10000 nM was found for `Cc1ccc(OC(F)F)c(Cn2c3cc(-c4cnn5c([C@H](C)O)cnc5c4)ccc3c(=O)n2C)c1` (single isomer, unassigned) [Example 108] in this work. An IC50 of under 1000 nM was found for `Cc1cccc([C@H](C)n2c3cc(-c4cnc(N5CCN(C(=O)CO)[C@H](C)C5)nc4)ccc3c(=O)n2C)c1` (single isomer, unassigned) [Example 117] in this work. An IC50 of 1000 to 10000 nM was found for `Cc1cccc([C@@H](C)n2c3cc(-c4cnc(N5CCN(C(=O)CO)[C@H](C)C5)nc4)ccc3c(=O)n2C)c1` (single isomer, unassigned) [Example 118] in this work. An IC50 of under 1000 nM was found for `Cn1c(=O)c2ccc(-c3cnc(N4CCOCC4)nc3)cc2n1Cc1c(F)cccc1OC(F)F` [Example 1, 1-(2-(Difluoromethoxy)-6-fluorobenzyl)-2-methyl-6-(2-morpholinopyrimidin-5-yl)-1H-indazol-3(2H)-one] in this work. An IC50 of 1000 to 10000 nM was found for `Cn1c(=O)c2ccc(-c3cnc(N4CCOCC4)nc3)cc2n1Cc1cccc(F)c1` [Example 1.1] in this work. An IC50 of 1000 to 10000 nM was found for `Cn1c(=O)c2ccc(-c3cnc(N4CCOCC4)nc3)cc2n1Cc1cccc(OC(F)F)c1` [Example 1.2] in this work. An IC50 of 1000 to 10000 nM was found for `Cc1ccccc1Cn1c2cc(-c3cnc(N4CCOCC4)nc3)ccc2c(=O)n1C` [Example 1.3] in this work. An IC50 of over 10000 nM was found for `Cn1c(=O)c2ccc(-c3cnc(N4CCOCC4)nc3)cc2n1CCc1ccccc1` [Example 1.4] in this work. An IC50 of 1000 to 10000 nM was found for `CC(c1ccccc1OC(F)F)n1c2cc(-c3cnc(N4CCOCC4)nc3)ccc2c(=O)n1C` (centres unmarked) [Example 1.5] in this work. An IC50 of 1000 to 10000 nM was found for `Cn1c(=O)c2ccc(-c3cnc(N4CCOCC4)nc3)cc2n1Cc1cc(F)ccc1OC(F)F` [Example 1.6] in this work. An IC50 of over 10000 nM was found for `Cn1c(=O)c2ccc(-c3cnc(N4CCOCC4)nc3)cc2n1C(=O)c1ccccc1OC(F)F` [Example 1.7] in this work. An IC50 of over 10000 nM was found for `Cn1c(=O)c2ccc(-c3cnc(N4CCOCC4)nc3)cc2n1C(=O)c1ccccc1` [Example 1.8] in this work. An IC50 of 1000 to 10000 nM was found for `Cc1cccc(Cn2c3cc(-c4cnc(N5CCOCC5)nc4)ccc3c(=O)n2C)c1` [Example 1.9] in this work. An IC50 of 1000 to 10000 nM was found for `Cn1c(=O)c2ccc(-c3cnc(N4CCOCC4)nc3)cc2n1Cc1ccccc1` [Example 1.10] in this work. An IC50 of over 10000 nM was found for `Cn1c(=O)c2ccc(-c3cnc(N4CCOCC4)nc3)cc2n1Cc1ccc(F)cc1` [Example 1.11] in this work. An IC50 of 1000 to 10000 nM was found for `Cn1c(=O)c2ccc(-c3cnc(N4CCOCC4)nc3)cc2n1Cc1ccccc1C#N` [Example 1.12] in this work. An IC50 of over 10000 nM was found for `Cn1c(=O)c2ccc(-c3cnc(N4CCOCC4)nc3)cc2n1CCc1ccccc1F` [Example 1.13] in this work. An IC50 of 1000 to 10000 nM was found for `Cn1c(=O)c2ccc(-c3cnc(N4CCOCC4)nc3)cc2n1Cc1ncccc1Cl` [Example 1.14] in this work. An IC50 of 1000 to 10000 nM was found for `Cn1c(=O)c2ccc(-c3cnc(N4CCOCC4)nc3)cc2n1Cc1ccccc1F` [Example 1.15] in this work. An IC50 of 1000 to 10000 nM was found for `Cn1c(=O)c2ccc(-c3cnc(N4CCOCC4)nc3)cc2n1Cc1nc(Cl)ccc1Cl` [Example 1.16] in this work. An IC50 of over 10000 nM was found for `Cn1c(=O)c2ccc(-c3cnc(N4CCOCC4)nc3)cc2n1Cc1cnccc1Cl` [Example 1.17] in this work. An IC50 of under 1000 nM was found for `Cc1ccc(OC(F)F)c(Cn2c3cc(-c4cnc(N5CCOCC5)nc4)ccc3c(=O)n2C)c1` [Example 1.18] in this work. An IC50 of under 1000 nM was found for `Cc1ccc(C)c(Cn2c3cc(-c4cnc(N5CCOCC5)nc4)ccc3c(=O)n2C)c1` [Example 1.19] in this work.
